Test results from patent US20090047704A1, “Combination of a Histological or Cytological Fixing Agent and One or More Photoactivatable Compounds of the Quinone Family, In Particular Hypericin, Hypocrellin A and Hypocrellin B” (NOVACYT, priority 2005, published 2009).
Entries after “also recorded” stand apart in the source; their conditions may differ.

What was measured:
Format in all cases: cell-based
tumorous HeLa cells = test: Microspectrofluorometer measurement of hypericin marking in a fixed mixed cell suspension, tumorous cells; settings: Sakomano fixing agent, 2 μm/ml, one hour, shielded from light
From the text: (§1) Cells from a line of epidermoid malphigian carcinoma of the cervix, of the type HeLa, are cultivated in a petri dish. They are then fixed in a cytological fixing agent of the Sakomano type which already includes normal epithelial cells from a cervical smear in order to verify the affinity of hypericin for the tumorous cells in a cell suspension containing several types of normal cells and tumorous cells. Hypericin is then placed in suspension for one hour in the cell suspension fixed at a concentration of 2 μm/ml and shielded from light. Tests are carried out using a microspectrofluorometer in order to compare the level of intensity of fluorescence and the quality of the fluorescence spectrum measured for the different cells of the suspension, incubated at the same concentration for one hour in the solution of Sakomano cytological fixing agent containing hypericin.

tumorous cells = test: Incorporation of hypericin by tumorous cells suspended in fixing agent solution; settings: tumorous cells in suspension in fixing agent solution containing micromolar measures of hypericin
From the text: Since the liquid phase of the cell suspension practically no longer contains hypericin, it is possible to carry out a direct analysis of the cells (morphological and/or fluorescence emission analysis) without rinsing the cell suspension. This property therefore allows the cell/tissue preparation and the analysis of the cells to be automated.

[1] = test system: normal epithelial cells from a cervical smear; test: Microspectrofluorometer measurement of hypericin marking in a fixed mixed cell suspension, normal cells; settings: Sakomano fixing agent, 2 μm/ml, one hour, shielded from light
From the text: as §1

Human glioblastoma cells = test: Microspectrofluorometer comparison of hypericin fluorescence in living versus fixed glioblastoma cells; settings: 2 micromoles per ml hypericin in Sakomano cytological fixing agent, one hour
Experimental: Human glioblastoma cells are cultivated in a petri dish. Hypericin is placed in suspension in a solution of Sakomano cytological fixing agent, with a concentration of 2 micromoles per ml, four hours before the experiments. The fixing agent solution comprising hypericin is shielded from light. The cells of the glioblastoma are directly fixed by placing them in the solution of fixing agent prepared based on hypericin for one hour. Comparative tests are carried out using a microspectrofluorometer in order to compare the level of intensity of fluorescence and the quality of the fluorescence spectrum measured in cultures of identical living glioblastoma cells, incubated at the same concentration for one hour in the solution of Sakomano cytological fixing agent containing hypericin, and the fixed cells.

Cc1cc(O)c2c(=O)c3c(O)cc(O)c4c5c(O)cc(O)c6c(=O)c7c(O)cc(C)c8c1c2c(c34)c(c78)c65 [hypericin, 1,3,4,6,8,13-hexahydroxy-10,11-dimethylphenanthro(1,10,9,8,opqra)perylene-7,14-dione]
affinity of hypericin for tumorous cells (tumorous HeLa cells): great affinity
localisation of hypericin in tumorous cells (tumorous HeLa cells): preferential perinuclear localisation; also recorded: very specific preferential perinuclear localisation
incorporation of hypericin by the cells (tumorous cells): almost all of the hypericin is incorporated by the cells
affinity of hypericin for normal cells [1]: very low level of affinity; also recorded: low level of affinity
localisation of hypericin in normal cells [1]: peripheral localisation in the region of the cell membrane
fluorescence spectrums, living cells versus fixed cells (Human glioblastoma cells): can be completely superimposed
levels of intensity of the fluorescence, living cells versus fixed cells (Human glioblastoma cells): identical
